# Measurements taken from patent publication US20110311633A1, “Combination of a Silicon Containing Component and a Hormone” (priority 2005, published 2011).
# Tested on: Pre-osteoblast cells
# Assay: Pre-osteoblast cells in oestrogen-free environment, hormone with or without silicon, total protein
# Procedure: The cells for these respective experiments had also been passaged and maintained in media containing no added silicon (for the subsequent E2 or vehicle alone experiments) or containing 50 micromolar silicon (for the subsequent Si or E2+Si experiments).
# Thus in experiments identical to those described above at the 48 hour time point, we investigated the effects of 10^−6 M progesterone instead of oestradiol.
compound,measurement,setting,value
C[C@]12CC[C@@H]3c4ccc(O)cc4CC[C@H]3[C@@H]1CC[C@@H]2O [oestradiol],total protein concentration,"10^-9 M E2, absence of silicon, varying lengths of time, versus baseline (vehicle), FIG. 2",no effect
orthosilicic acid,total protein,"orthosilicic acid 50 micromolar without E2, oestrogen-free environment, FIG. 2",no significant effect
CC(=O)[C@H]1CC[C@H]2[C@@H]3CCC4=CC(=O)CC[C@]4(C)[C@H]3CC[C@]12C [progesterone],total protein,"10^-6 M progesterone together with silicon (50 micromolar), 48 hour time point, FIG. 4",modest effect
